Assay results taken from BindingDB's records for doi:10.1016/j.ejmech.2019.07.019 (Isf College of Pharmacy, 2019).

Columns and labels:
[1] = Inhibition of HIV1 3B Y181C mutant infected in human MT2 cells assessed as reduction in virus-induced cytopathogenicity after 3 days by BrightGlo luciferase reporter gene assay
[2] = Inhibition of HIV1 reverse transcriptase Y181C/K103N double mutant infected in human MT4 cells assessed as reduction in virus-induced cytopathogenicity

SMILES | IC50 [1] | IC50 [2]
CCCCC(O)(c1c(NC(=O)OCC)[nH]c2ccc(Br)cc12)C(F)(F)F (configuration not stated) | 1.93 µM | 
COP(=O)(c1cc(C)cc(/C=C/C#N)c1)c1c(C(N)=O)[nH]c2ccc(Cl)cc12 (configuration not stated) [IDX899] |  | 11 µM
